Test results: patent publication US20080318938A1, “METHODS FOR TREATING ABERRANT CELL PROLIFERATION DISORDERS” (priority 2007, published 2008)
Like-named read-outs stand apart in the source and are kept apart here.

Tests used:
[1] = Distribution in human whole blood fractions (LC-MS/MS); type: in vitro ADME
Method: Twenty five mL healthy donor whole blood was collected in the presence of heparin. Human whole blood was added with Compound TA1-1B to reach final concentration of 3 uM. Whole blood was gently mized and incubated at 37° C. for 4 hrs. At the end of the incubation 0.5 mL blood was collected and centrifuge at 500×g to separate the platelet-rich plasma for further analysis.
In order to isolate white blood cells, 5 ml of treated blood was subjected to Ficoll density gradient centrifugation. At the end of the centrifugation formed buffy coat containing most of the white blood cells and Ficolle fractions containing red blood cells and granulocites were collected separately. Obtained white cell fraction was washed with 5 ml of isotonic phosphate buffer and saved for further analysis. Obtained fractions were subjected to Compound TA1-1B quantitative analysis using LC-MS/MS. Fractions obtained from untreated whole blood were used as corresponding biological matrices in LC-MS/MS based bioanalysis.
The most part of added compound (93.7%) was found in blood formed elements than in plasma indicating to a potentially high volume of distribution and good tissue penetration of compound TA1-1B.

SF-295 = test: Inhibition of cell proliferation (MTT); type: cell-based; settings: Homo sapiens; SF-295, CNS; 48 hours
Method: (§1) Inhibition of cell proliferation is determined in human tumor cell lines. Innoculation density and doubling times for specific cell lines are listed at World Wide Web URL “dtp.nci.nih.gov/docs/misc/common_files/cell_list.html.”
(§2) • 1. Plate adherent cells the day before starting the experiment in 180 μl growth media (see list hereafter). • 2. Day of experiment, count and plate suspension cells in 180 μl growth media (see list on next page). • 3. Make 10× Compound, vehicle, and chemotherapeutic cocktail • a. Compound (1× to 10×) • i. 10 μM Compound to 100 μM • ii. 3 μM Compound to 30 μM • iii. 1 μM Compound to 10 μM • iv. 0.3 μM Compound to 3 μM • v. 0.1 μM Compound to 1 μM • b. Vehicle • i. PBS, equivalent to the volume used for 10 μM Compound (1× is ˜0.06% PBS) • c. Chemotherapeutic cocktail (1× to 10×): • i. 1 μM Velcade to 10 μM • ii. 100 μM Etoposide to 1 mM • iii. 20 μM Taxol to 200 μM • 4. Add 20 μl of the 10× compound/vehicle/chemotherapeutic cocktail to cells. • 5. Incubate at 37° C., 5% CO2 for 48 hours. • 6. Aspirate media. For suspension cells, spin plate at 1500 RPM for 10 minutes. Use a multichannel pipettor to slowly remove media. • 7. Add 200 μl of Thiazolyl Blue Tetrazolium Bromide (MTT) to each well: 0.863 mg/ml MTT in growth media.
(§3) Proliferation of several cancer cells was inhibited by compound TA1-1B (which is a particular mixture of the isomers represented by TA1-1A), as shown in the following table (Table 1). The value EC50 is the amount of Compound TA1-1B that results in 50% inhibition of proliferation of the indicated cell type.

HuT102 = test: Inhibition of cell proliferation (MTT); type: cell-based; settings: Homo sapiens, HuT-102; HuT102, Lymphoma; 48 hours
Method: as §1, §2, §3

MOLT-3 = test: Inhibition of cell proliferation (MTT); type: cell-based; settings: Homo sapiens; MOLT-3, Leukemia; 48 hours
Method: as §1, §2, §3

PC-3 = test: Inhibition of cell proliferation (MTT); type: cell-based; settings: Homo sapiens; PC-3, Prostate; 48 hours
Method: as §1, §2, §3

HCC-2998 = test: Inhibition of cell proliferation (MTT); type: cell-based; settings: Homo sapiens; HCC-2998, Colon; 48 hours
Method: as §1, §2, §3

Ku-812 = test: Inhibition of cell proliferation (MTT); type: cell-based; settings: Homo sapiens, KU812; Ku-812, Leukemia; 48 hours
Method: as §1, §2, §3

BT-549 = test: Inhibition of cell proliferation (MTT); type: cell-based; settings: Homo sapiens; BT-549, Breast; 48 hours
Method: as §1, §2, §3

[2] = system: σ (non-selective) sigma receptors; test: Receptor binding
[3] = target: CCKB/CCK2 Cholecystokinin receptor (Homo sapiens, UniProt P32239); test: Receptor binding
Neurokinin NK2 receptor = Neurokinin NK2 receptor (Homo sapiens, UniProt P21452); test: Receptor binding
SR = test: Inhibition of cell proliferation (MTT); type: cell-based, human; settings: Leukemia
Method: as §1, §2, §3

CCRF-CEM = test: Inhibition of cell proliferation (MTT); type: cell-based, human; settings: Leukemia
Method: as §1, §2, §3

HOP-92 = test: Inhibition of cell proliferation (MTT); type: cell-based, human; settings: HOP-92, Non Small Cell Lung
Method: as §1, §2, §3

[4] = TA1-1B in plasma, brain and tumor of HCT116 tumor-bearing mice; type: in vivo; settings: 25.0 mg/kg single IV dose; for concentration at 15 min / concentration at 2 h: female, NCr nu/nu, mouse; for concentration at 15 min: 15 min post-dose; for concentration at 2 h: two hour post-dose
Source text: In vivo experiment protocols were approved by the Animal Use and Care Committee. Female NCr nu/nu mice were purchased from Taconic Farms and group housed in a ventilated rack system on a 12/12 light cycle. All housing materials and water were autoclaved prior to use. The mice were fed ad libitum with gamma-irradiated laboratory chow and acidified water. Animals were handled under laminar-flow hoods. Animals were inoculated subcutaneously in the right flank with 5×10̂6 HCT116 cells. Tumors were monitored twice weekly and then daily as they approached the appropriate size for study. On Day 1 of the study, the animals were randomized into n=3 treatment groups with group average tumor sizes of 109 mm^3.
where w=width and 1=length in mm of the tumor. Tumor weight was estimated with the assumption that 1 mg is equivalent to 1 mm^3 of tumor volume. Mice were dosed with compound TA1-1B at 25.0 mg/kg (single IV dose). At fifteen min and two hour time points, plasma, brain and tumor samples were collected from terminal mice and frozen. It was determined that the tumor contained 0.86 μM, plasma contained 0.74 μM and brain contained 1.47 μM of the therapeutic agent after 15 min post-dose, and the tumor contained 1.6 μM, plasma contained 0.41 μM and brain contained 0.8 μM of the therapeutic agent after the two hour post-dose.

[5] = 3 uM, 37° C., 4 hrs, White cells
[6] = brain, read-out: Concentration in brain
[7] = plasma, read-out: Concentration in plasma
[8] = tumor, read-out: Concentration in tumor

Sequence of CCKB/CCK2 Cholecystokinin receptor (P32239 whole entry): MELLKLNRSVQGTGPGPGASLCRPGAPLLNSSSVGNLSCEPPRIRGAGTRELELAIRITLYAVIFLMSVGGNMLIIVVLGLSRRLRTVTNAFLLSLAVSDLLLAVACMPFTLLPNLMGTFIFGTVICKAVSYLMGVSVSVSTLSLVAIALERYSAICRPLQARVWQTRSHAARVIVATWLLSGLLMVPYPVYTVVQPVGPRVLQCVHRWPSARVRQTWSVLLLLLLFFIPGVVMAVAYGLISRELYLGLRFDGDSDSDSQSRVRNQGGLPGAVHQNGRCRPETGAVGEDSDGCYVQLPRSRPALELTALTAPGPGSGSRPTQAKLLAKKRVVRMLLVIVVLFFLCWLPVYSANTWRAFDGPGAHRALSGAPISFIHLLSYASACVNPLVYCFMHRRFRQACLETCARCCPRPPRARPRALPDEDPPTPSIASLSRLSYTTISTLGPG
Sequence of Neurokinin NK2 receptor (P21452 whole entry): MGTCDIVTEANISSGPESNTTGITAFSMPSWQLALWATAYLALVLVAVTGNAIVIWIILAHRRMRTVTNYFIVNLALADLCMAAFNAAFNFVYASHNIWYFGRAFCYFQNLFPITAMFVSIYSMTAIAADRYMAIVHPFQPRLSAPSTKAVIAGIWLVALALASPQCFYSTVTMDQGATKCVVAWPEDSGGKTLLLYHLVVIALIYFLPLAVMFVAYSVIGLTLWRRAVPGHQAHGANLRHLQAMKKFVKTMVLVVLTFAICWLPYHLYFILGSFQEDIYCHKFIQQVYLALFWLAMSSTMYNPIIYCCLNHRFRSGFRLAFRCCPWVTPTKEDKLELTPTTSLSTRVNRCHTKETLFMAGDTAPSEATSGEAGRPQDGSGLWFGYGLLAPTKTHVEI

## CN1CCC[C@H]1CCNC(=O)c1cn2c3c(c(N4CCC(c5cnccn5)C4)c(F)cc3c1=O)Oc1cc3ccccc3cc1-2 (stereo partly drawn) [TA1-1B]
[1]; 3 uM added, 5 mL
  Mass balance Amount: 14.7 nmol
  Mass balance Conc.: 2.95 µM
[1]; 3 uM, 37° C., 4 hrs, Plasma
  % of compound in plasma fraction: 6.2%
  Amount in plasma fraction: 0.92 nmol
  Conc. in plasma fraction: 370 nM
[1]; 3 uM, 37° C., 4 hrs, Red cells
  % of compound in red cells fraction: 81.5%
  Amount in red cells fraction: 12.0 nmol
  Conc. in red cells fraction: 4850 nM
[1]; 3 uM, 37° C., 4 hrs, Total
  Total amount in all fractions: 14.7 nmol
[1]; [5]
  % of compound in white cells fraction: 12.2%
  Amount in white cells fraction: 1.8 nmol
  Conc. in white cells fraction: 81790 nM
[1]; 3 uM, 37° C., 4 hrs, red and white cells versus plasma
  Part of added compound found in blood formed elements: 93.7%
SF-295
  EC50: 4270 nM
HuT102
  EC50: 1050 nM
MOLT-3
  EC50: 1140 nM
PC-3
  EC50: 4960 nM
HCC-2998
  EC50: 2540 nM
Ku-812
  EC50: 4190 nM
BT-549
  EC50: 1800 nM
[2]
  % inhibition @ 1 uM: 67%
[3]
  inhibition at 1 µM: 93%
Neurokinin NK2 receptor
  inhibition at 1 µM: 107%
SR; Homo sapiens, 48 h
  EC50: 914 nM
SR; 48 hours
  EC50: 1300 nM
CCRF-CEM; Homo sapiens, 48 h
  EC50: 630 nM
CCRF-CEM; 48 hours
  EC50: 1220 nM
HOP-92; 48 hours
  EC50: 1960 nM
HOP-92; Homo sapiens, HOP-92, 48 h
  EC50: 1800 nM
[4]; heading of Example 3
  Blood-brain barrier permeation: Permeates the Blood-Brain Barrier
[4]; [6]
  concentration at 15 min: 1470 nM
  concentration at 2 h: 800 nM
[4]; [7]
  concentration at 15 min: 740 nM
  concentration at 2 h: 410 nM
[4]; [8]
  concentration at 15 min: 860 nM
  concentration at 2 h: 1600 nM
